Results on 18 compounds are retold here after patent publication US7868204B2, “Inhibitors of histone deacetylase” (MethylGene Inc., priority 2001, dated 2011).

Assay [1] has as its target T1, cloned recombinant human HDAC-1 (Homo sapiens, UniProt Q13547).
T1 construct: made in house; host or cells: Baculovirus insect cell expression system
Description: Human HDAC-1 enzyme inhibition, Assay 1 ([3H]-acetylated histone substrate, scintillation counting). It counts as biochemical. Particulars: read-out: Human HDAC-1 IC50. The essentials: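 Activity read as [3H]-acetic acid liberated from labeled substrate, ethyl acetate-extracted and scintillation-counted. Compounds preincubated 30 min at 4° C. with baculovirus-expressed, purified human HDAC-1. Dose-response curves give IC50 as concentration producing fifty percent of maximal inhibition.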

A further assay relates to HCT116 cells. Description: MTT assay. It counts as cell-based. Particulars: Homo sapiens, HCT-116, 72 h, HCT116 cells, 72 hours. In outline:
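Read-out: MTT (0.5 mg/ml final, 4 h) after solubilization in 50% DMF/20% SDS, pH 4.7, with OD translated into cell number via the line's growth curve. Compound treatment lasted 72 h at 37 °C in 5% CO2, starting a day after plating.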
(In general: Tetrazolium dyes change colour on reduction, which living cells bring about.)

Assay [2] concerns acetylated histone H-4 in T24 human bladder cancer cells. Description: Histone H4 acetylation in whole cells by immunoblots. As to conditions: 16 h. It counts as cell-based. Here is the method:
T24 human bladder cancer cells growing in culture were incubated with HDAC inhibitors for 16 h. […] of total histone protein was loaded onto SDS/PAGE and transferred to nitrocellulose membranes. Membranes were probed with polyclonal antibodies specific for acetylated histone H-4 (Upstate Biotech Inc.), followed by horse radish peroxidase conjugated secondary antibodies (Sigma). Enhanced Chemiluminescence (ECL) (Amersham) detection was performed using Kodak films (Eastman Kodak). Acetylated H-4 signal was quantified by densitometry.
(In western blotting, separated proteins are transferred to a membrane and probed.)

Setting [3] is: T-24, Table 5F, read-out: H4 Ac (T24) EC50.
[4] abbreviates: T-24, Table 5b, read-out: H4Ac (T24) EC50.

Read-outs that look alike come from different tables or passages of the source. Where only a bound is given, the exact number is not on record here.

T1 sequence (Q13547 whole entry): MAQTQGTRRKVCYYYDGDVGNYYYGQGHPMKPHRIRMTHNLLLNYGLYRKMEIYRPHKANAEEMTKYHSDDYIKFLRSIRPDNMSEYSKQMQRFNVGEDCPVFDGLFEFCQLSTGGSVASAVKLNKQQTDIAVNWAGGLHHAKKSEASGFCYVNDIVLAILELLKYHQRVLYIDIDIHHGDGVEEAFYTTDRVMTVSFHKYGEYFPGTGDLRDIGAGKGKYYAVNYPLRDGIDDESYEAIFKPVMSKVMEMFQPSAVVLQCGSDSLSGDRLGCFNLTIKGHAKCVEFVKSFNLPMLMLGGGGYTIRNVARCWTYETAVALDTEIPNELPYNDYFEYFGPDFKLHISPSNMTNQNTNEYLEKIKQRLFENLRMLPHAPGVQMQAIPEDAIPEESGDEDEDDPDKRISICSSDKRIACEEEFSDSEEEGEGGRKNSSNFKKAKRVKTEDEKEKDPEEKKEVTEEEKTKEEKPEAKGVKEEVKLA

The term IC50 denotes the concentration that gives 50% inhibition. A word on the EC50: it is the concentration needed to bring the measured effect to its halfway point. For `Nc1ccccc1NC(=O)c1ccc(-c2cccc(CNC3Cc4ccccc4C3)c2)cc1` [Cpd 186], the half-inhibitory concentration (IC50) (in assay [1] (Table 5F); in the assay with HCT116 cells (Table 5F)) was 2000 nM throughout. Also, the EC50 in assay [2] (setting [3]) was determined as 2000 nM.

`Nc1ccccc1NC(=O)c1ccc(-c2cccc(CNCc3ccccn3)c2)cc1` [Cpd 187]: the IC50 is 2000 nM in assay [1] (Table 5F) and 5000 nM in the assay with HCT116 cells (Table 5F). Further, the EC50 in assay [2] (setting [3]) worked out at 2000 nM.

Take `COc1cc(NCc2ccc(-c3ccc(C(=O)Nc4ccccc4N)cc3)cc2)cc(OC)c1OC` [Cpd 189, N-(2-Amino-phenyl)-4-[4-{(3,4,5-trimethoxy-phenylamino)-methyl}-phenyl]-benzamide]: the IC50 came to 3000 nM in assay [1] (Table 5F) and 2000 nM in the assay on HCT116 cells (Table 5F). For the same compound, the concentration giving a half-maximal response (EC50) in assay [2] (setting [3]) came out at 5000 nM.

Turning to `COc1ccc(NCc2ccc(-c3ccc(C(=O)Nc4ccccc4N)cc3)cc2)cc1` [Cpd 190, N-(2-Amino-phenyl)-4-[4-{(4-methoxy-phenylamino)-methyl}-phenyl]-benzamide], the IC50 in assay [1] (Table 5F) came out at 3000 nM; in the assay on HCT116 cells (Table 5F), 1000 nM. In assay [2] (setting [3]), the concentration giving a half-maximal response (EC50) was over 5000 nM.

On to `COc1ccc(CNC2(C#Cc3ccc(C(=O)Nc4ccccc4N)cc3)CCCCC2)cc1` [Cpd 192], for which the IC50 in assay [1] (Table 5F) amounted to 2000 nM; in the assay with HCT116 cells (Table 5F) it was 1000 nM. Moreover, the EC50 in assay [2] (setting [3]) was 3000 nM.

In the case of `Nc1nc(NC2Cc3ccccc3C2)nc(OCc2ccc(C(=O)Nc3ccccc3N)cc2)n1` [Cpd 207], the 50% inhibitory concentration (IC50) was determined as 400 nM in assay [1] (Table 5b) and 600 nM in the assay with HCT116 cells (Table 5b). Moreover, the half-maximal effective concentration (EC50) in assay [2] (setting [4]) came to 2000 nM.

As for `Nc1ccccc1NC(=O)c1ccc(CNc2ncnc(NCCc3ccccc3)n2)cc1` [Cpd 210], the values for the half-maximal inhibitory concentration (IC50) (in assay [1] (Table 5b); in the assay with HCT116 cells (Table 5b)) were 3000 nM and 900 nM, respectively. The 50% effective concentration (EC50) in assay [2] (setting [4]) was 1000 nM.

Take `COc1nc(NCc2ccc(C(=O)Nc3ccccc3N)cc2)nc(OC)n1` [Cpd 212]: the values for the IC50 (in assay [1] (Table 5b); with HCT116 cells (Table 5b)) were 3000 nM and 1000 nM, respectively. In addition, the concentration giving a half-maximal response (EC50) in assay [2] (setting [4]) was found to be 1000 nM.

`COc1nc(NCc2ccc(C(=O)Nc3ccccc3N)cc2)nc(NC2Cc3ccccc3C2)n1` [Cpd 214]: the IC50 in assay [1] (Table 5b) was 3000 nM; with HCT116 cells (Table 5b), 900 nM. For the same compound, the concentration giving a half-maximal response (EC50) in assay [2] (setting [4]) was 1000 nM.

For `CN(Cc1ccc(C(=O)Nc2ccccc2N)cc1)c1nc(N)nc(NC2Cc3ccccc3C2)n1` [Cpd 216], the IC50 in assay [1] (Table 5b) was found to be 500 nM; with HCT116 cells (Table 5b), 400 nM. In assay [2] (setting [4]), the EC50 was 2000 nM.

Consider `Nc1ccccc1NC(=O)c1ccc(CNc2nc3ccc(OCCN4CCOCC4)cc3s2)cc1` [Cpd 228], for which the results for the IC50 (in assay [1] (Table 5F); with HCT116 cells (Table 5F)) were 3000 nM and 300 nM, respectively. In addition, the EC50 in assay [2] (setting [3]) turned out to be 1000 nM.

Regarding `COc1ccc2nc(NCc3ccc(C(=O)Nc4ccccc4N)cc3)sc2c1` [Cpd 233], the half-maximal inhibitory concentration (IC50) is 900 nM in assay [1] (Table 5F) and 300 nM in the assay on HCT116 cells (Table 5F). The EC50 in assay [2] (setting [3]) worked out at 1000 nM.

Regarding `COCCn1cnc2c(NCc3ccc(C(=O)Nc4ccccc4N)cc3)nc(Cl)nc21` [Cpd 243], the IC50 in assay [1] (Table 5F) amounted to 2000 nM; with HCT116 cells (Table 5F) it was 800 nM. Further, in assay [2] (setting [3]), the EC50 is 1000 nM.

Take `Cc1onc2c1c(=O)n(Cc1ccc(C(=O)Nc3ccccc3N)cc1)c1cccc(Cl)c21` [Cpd 247]: the figures for the IC50 (in assay [1] (Table 5F); in the assay on HCT116 cells (Table 5F)) were 3000 nM and 600 nM, respectively. Besides, the EC50 in assay [2] (setting [3]) was 2000 nM.

Consider `Nc1ccccc1NC(=O)c1ccc(-c2ncc[nH]2)cc1` [Cpd 249], for which the IC50 in assay [1] (Table 5F) came to 4000 nM; in the assay on HCT116 cells (Table 5F), 1000 nM. Moreover, in assay [2] (setting [3]), the concentration giving a half-maximal response (EC50) came out at 2000 nM.

Consider `Nc1ccccc1NC(=O)c1ccc(Cc2nc(CN3CCOCC3)cs2)cc1` [Cpd 252], for which the figures for the concentration for half-maximal inhibition (IC50) (in assay [1] (Table 5F); with HCT116 cells (Table 5F)) were 8000 nM and 1000 nM, respectively. In addition, the EC50 in assay [2] (setting [3]) came to 2000 nM.

Regarding `CCn1c(=O)n(Cc2ccc(C(=O)Nc3ccccc3N)cc2)c(=O)c2sccc21` [Cpd 255], the IC50 turned out to be 2000 nM in assay [1] (Table 5F) and 800 nM with HCT116 cells (Table 5F). The EC50 in assay [2] (setting [3]) came to 1000 nM.

As to `Nc1ccccc1NC(=O)c1ccc(Cn2cnc3ccsc3c2=O)cc1` [Cpd 257], the concentration for half-maximal inhibition (IC50) (in assay [1] (Table 5F); in the assay with HCT116 cells (Table 5F)) was 400 nM in each case. For the same compound, in assay [2] (setting [3]), the EC50 was 1000 nM.
